Source: ChEMBL document CHEMBL3301361, “Experimental in vitro DMPK and physicochemical data on a set of publicly disclosed compounds”
≈ marks a conversion by molar mass, not a printed value.

What was measured:
[1] = in vitro; details: human
[2] = physchem; details: pH 7.4 buffer
[3] = physchem; details: octan-1-ol/water

microsomal CLint ([1]; liver microsomes) [µL/min/mg] | solubility thermodynamic [2] [µM] | microsomal CLint ([1]; microsomes) [µL/min/mg] | logD ([3]; pH 7.4, LogD7.4) | logD ([3]; pH 7.4) | SMILES
5 | 38.9 (≈ 16.1 µg/mL) | – | – | – | CN(C)CC(O)COc1ccc(Nc2ncc(Cl)c(Nc3ccccc3)n2)cc1 (stereo unspecified)
– | – | 6 | 1.56 | – | N#Cc1c(-c2ccccc2)nc(SCc2ccccc2)[nH]c1=O
– | – | 6 | 4.17 | – | CCCCc1nc2c(N)nc3ccccc3c2n1Cc1ccccc1
6 | 24 (≈ 11.8 µg/mL) | – | – | – | CCN(C(=O)NCc1c(F)cccc1F)C1CCN(CCC(c2ccccc2)c2ccccc2)CC1
– | 1.9 (≈ 0.508 µg/mL) | 53.7 | 2.5 | – | O=c1[nH]c(-c2ccc([N+](=O)[O-])cc2)nc2ccccc12
< 3 | – | – | 1.1 | – | CCCC1CCCCC(N)=N1 (stereo unspecified)
3 | – | – | 1.8 | – | Nc1nnc(-c2ccccc2)s1
< 3 | – | – | 0.08 | – | CC(C)C[C@H](NC(=O)N1CCOCC1)C(=O)NCC#N
– | – | 35 | 4.31 | – | C(#Cc1n[nH]c2ccccc12)c1ccccc1
– | – | 61 | 3.92 | – | c1ccc(Sc2ccc3ccccc3n2)cc1
– | – | < 3 | 0.15 | – | Cc1ccc(C#N)cc1-c1cc(C(F)(F)F)ccc1OCC(=O)O
– | – | 8.5 | 1.26 | – | O=C(NCC1CCCCC1)c1cc(-n2ncc(=O)[nH]c2=O)ccc1Cl
< 3 | – | – | 0.91 | – | N#Cc1cc(Cl)ccc1O[C@H](CCN)c1ccccc1
< 3 | 129 (≈ 57.3 µg/mL) | – | – | – | CN(C(=O)Cc1ccc(F)cc1)C1CCN(CCC(c2ccccc2)c2ccccc2)CC1
68 | – | – | 0.86 | – | CCc1ccc(CCNCCCSCCNC[C@H](O)c2ccc(O)c3[nH]c(=O)sc23)cc1
20 | – | – | 1.06 | – | O=c1[nH]c2c(O)ccc([C@@H](O)CNCCCSCCNCCc3cccc(Cl)c3)c2s1
35 | – | – | 1.74 | – | O=c1[nH]c2c(O)ccc([C@@H](O)CNCCCSCCNCCc3cccc(Cl)c3Cl)c2s1
< 3 | 282 (≈ 150 µg/mL) | – | 2.86 | – | CCN(C(=O)NCc1ccc(S(C)(=O)=O)cc1)C1CCN(CCC(c2ccccc2)c2ccccc2)CC1
27 | 17 (≈ 4.44 µg/mL) | – | 2.43 | – | NC(=O)Nc1cc(-c2ccccc2)sc1C(N)=O
75 | 4.3 (≈ 1.94 µg/mL) | – | 2.63 | – | CC(=O)Nc1ccc(CNc2[nH]nc3cccc(Oc4ccc(S(C)(=O)=O)cc4)c23)cc1
83 | 0.7 (≈ 0.317 µg/mL) | – | – | – | CSc1nccc(Nc2cc(NC(=O)c3cc(F)cc(N4CCOCC4)c3)ccc2C)n1
– | – | < 3 | 0.79 | – | Cc1c(Sc2ccc(Cl)cc2)c2ccc(S(C)(=O)=O)cc2n1CC(=O)O
< 3 | – | – | -0.89 | – | CNC(=O)c1cccc2c1c(Sc1ccc(Cl)cc1)c(C)n2CC(=O)O

microsomal CLint ([1]; liver microsomes) [µL/min/mg] | solubility thermodynamic [2] [µM] | microsomal CLint ([1]; microsomes) [µL/min/mg] | logD ([3]; pH 7.4, LogD7.4) | logD ([3]; pH 7.4) | SMILES
3 | – | – | 0.05 | – | Cc1ccc2c(c1)c([S+]([O-])c1ccc(Cl)cc1)c(C)n2CC(=O)O (stereo unspecified)
– | – | 22 | 0.15 | – | COc1ccccc1CNCc1ccc(CCNC[C@H](O)c2ccc(O)c3[nH]c(=O)sc23)cc1
56 | – | – | 0.91 | – | COc1ccccc1CNCCc1cccc(CCNC[C@H](O)c2ccc(O)c3[nH]c(=O)sc23)c1
18 | 288 (≈ 190 µg/mL) | – | – | – | CCN(C(=O)Cc1ccc(S(C)(=O)=O)cc1)C1CCN(CC[C@@H](c2ccccc2)N2CCN(S(=O)(=O)C(F)(F)F)CC2)CC1
66 | 75.9 (≈ 40.4 µg/mL) | – | – | – | CCN(C(=O)Cc1ccc(S(C)(=O)=O)cc1)C1CCN(CCC(c2ccccc2)c2ccc(C)cc2)CC1 (stereo unspecified)
< 3 | 174 (≈ 106 µg/mL) | – | 1.84 | – | CCN(C(=O)Cc1ccc(S(C)(=O)=O)cc1)C1CCN(CCC(c2ccccc2)c2ccc(NS(C)(=O)=O)cc2)CC1 (stereo unspecified)
< 3 | 692 (≈ 398 µg/mL) | – | 2.09 | – | CCN(C(=O)Cc1ccc(S(C)(=O)=O)cc1)C1CCN(CCC(c2ccccc2)c2ccc(NC(C)=O)cc2)CC1 (stereo unspecified)
< 3 | – | – | -0.2 | – | O=C(O)CSCC(=O)Nc1nc(-c2ccc(F)cc2)cs1
7 | 75.9 (≈ 36.7 µg/mL) | – | 2.93 | – | COc1ccccc1C(=O)Nc1ccc(C)c(-n2cnc3ccc(N4CCN(C)CC4)cc3c2=O)c1
– | 933 (≈ 440 µg/mL) | 3 | 2.75 | – | Cc1ccc(NC(=O)c2ccccc2F)cc1-n1cnc2ccc(N3CCN(C)CC3)cc2c1=O
– | 537 (≈ 247 µg/mL) | < 3 | 2.11 | – | Cc1ccc(NC(=O)c2cncs2)cc1-n1cnc2ccc(N3CCN(C)CC3)cc2c1=O
7 | 91.2 (≈ 42 µg/mL) | – | 2.56 | – | Cc1ccc(C(=O)Nc2nccs2)cc1-n1cnc2ccc(N3CCN(C)CC3)cc2c1=O
< 3 | – | – | 1.56 | – | Cc1ccc(C(=O)NC(C)C)cc1-n1cnc2ccc(N3CCN(C)CC3)cc2c1=O
5 | – | – | 0.49 | – | COc1cccc2c(-c3c(C)n(CC(=O)O)c4ccc(C)cc34)ccnc12
< 3 | – | – | 0.52 | – | Cc1ccc2c(c1)c(-c1ccnc3c(C#N)cccc13)c(C)n2CC(=O)O
– | – | 50.5 | 3.74 | – | COc1ccc(C(=O)NCCN2CCN(Cc3ccc(Cl)c(Cl)c3)CC2)cc1Cl
6 | – | – | 1.79 | – | Cc1ccc(S(=O)(=O)NC(=O)N2CCC(N3CCC(Oc4ccc(Cl)cc4C)CC3)CC2)cc1
< 3 | – | – | 0.75 | – | Cc1ccc(S(=O)(=O)NC(=O)N2CCC(N3CCC(Oc4ccc(F)c(F)c4)CC3)CC2)cc1
< 3 | – | – | 3.66 | – | Cc1c(Cl)ccc(OC2CCN(C[C@H](O)CNC(=O)c3c[nH]nc3C(F)(F)F)CC2)c1Cl
– | – | < 3 | 3.91 | – | O=C(NC[C@@H](O)CN1CCC(Oc2ccc(Cl)c(Cl)c2)CC1)c1c[nH]c2ccccc12
3 | – | – | 3.69 | – | O=C(NC[C@@H](O)CN1CCC(Oc2ccc(Cl)c(Cl)c2)CC1)c1n[nH]c(=O)c2ccccc12
– | – | < 3 | 4.46 | – | O=C(NC[C@@H](O)CN1CCC(Oc2ccc(Cl)c(Cl)c2)CC1)n1c(=O)[nH]c2ccccc21
11.2 | 4.6 (≈ 1.83 µg/mL) | – | – | – | CS(=O)(=O)C1(c2cc(N3CCOCC3)nc(-c3cccc4[nH]ccc34)n2)CC1

microsomal CLint ([1]; liver microsomes) [µL/min/mg] | solubility thermodynamic [2] [µM] | microsomal CLint ([1]; microsomes) [µL/min/mg] | logD ([3]; pH 7.4, LogD7.4) | logD ([3]; pH 7.4) | SMILES
– | 0.3 (≈ 0.153 µg/mL) | < 3 | – | 4.06 | OC[C@H]1C[C@@H](n2nnc3c(N[C@@H]4C[C@H]4c4ccccc4)nc(SCCC(F)(F)F)nc32)[C@H](O)[C@@H]1O
– | – | 116 | 3.83 | – | CSc1nc(-c2ccccc2)nn1Cc1ccccc1
69 | – | – | 4.05 | – | O=C(NCC12CC3CC(CC(C3)C1)C2)c1ccccc1Cl
8 | – | – | 0.94 | – | CC1CN(C(=O)c2cc3ccccc3[nH]2)CCN1 (stereo unspecified)
4 | – | – | 4 | – | CCO/N=C(\c1ccc(Br)cc1)C1CCN(C2(C)CCN(C(=O)c3c(Cl)cncc3Cl)CC2)CC1
13 | – | – | 4.1 | – | CCN(C(=O)Cc1ccc([N+](=O)[O-])cc1)C1CCN(CCC(c2ccccc2)c2ccccc2)CC1
< 3 | 100 (≈ 61.8 µg/mL) | – | 2.98 | – | CCN(C(=O)Cc1ccc(S(C)(=O)=O)cc1)C1CCN(CCC(c2ccccc2)c2ccc(NC(=O)C(C)(C)C)cc2)CC1 (stereo unspecified)
– | – | 11 | 3.69 | – | Nc1nc(NCc2ccccc2)nc2c1nc(O)n2Cc1ccccc1
23 | – | – | 1.78 | – | Cc1ccc2c(c1)c(-c1ccnc3ccc(C(F)(F)F)cc13)c(C)n2CC(=O)O
– | – | 3 | 1.73 | – | Cc1nc(CSc2nc(N[C@H](C)CO)c3sc(N)nc3n2)cs1
> 150 | – | – | 3.96 | – | COc1ccc(C)c(NC(=O)CC23CC4CC(CC(C4)C2)C3)c1
< 3 | – | – | 1.16 | – | CCO[C@@H]1OC(=O)C[C@@H]1NC(=O)[C@@H]1CCCN2C(=O)CC[C@H](NC(=O)c3nccc4ccccc34)C(=O)N12
3 | – | – | 0.87 | – | COCCNCc1ccc(-c2cc(C(N)=O)c(NC(N)=O)s2)cc1
6 | – | – | 0.64 | – | CN(C)CCCOc1ccc(-c2cc(C(N)=O)c(NC(N)=O)s2)cc1
75 | – | – | 3.84 | – | CC1(C)[C@@H]2CC[C@@]1(CS(=O)(=O)NC1CCN(c3ccc(C(F)(F)F)cn3)CC1)C(=O)C2
7 | 1.3 (≈ 0.364 µg/mL) | – | – | – | Fc1cnc(Nc2ccccc2)nc1Nc1ccccc1
21 | – | – | 4.03 | – | O=C(CC12CC3CC(CC(C3)C1)C2)Nc1ccc2[nH]ncc2c1
– | – | 41 | 1.19 | – | NC1CCN(c2nccc(C(=O)NCC34CC5CC(CC(C5)C3)C4)c2Cl)CC1
33 | – | – | 1.18 | – | Cc1ccc2nc(CCNCCCO)ccc2c1NC(=O)CC12CC3CC(CC(C3)C1)C2
4 | – | – | 0.74 | – | N=C(N)c1cc2c(I)cccc2s1
– | – | 34.7 | 3.48 | – | Cc1cc2c(C(=O)NC[C@H](C)c3ccccc3)c(O)c(O)cc2c(O)c1-c1c(C)cc2c(C(=O)NC[C@H](C)c3ccccc3)c(O)c(O)cc2c1O [1,1',6,6',7,7'-HEXAHYDROXY-3,3'-DIMETHYL-N5-((R)-2-PHENYLPROPYL)-N5'-((R)-2-PHENYLPROPYL)-2,2'-BINAPHTHYL-5,5'-DICARBOXAMIDE (ATROPISOMERIC MIX)]
– | – | < 3 | 0.88 | – | Nc1ccc(S(=O)(=O)c2ccc(N)cc2)cc1 [DAPSONE]
– | – | 9 | 1.89 | – | Cc1cccc(Nc2ccccc2C(=O)O)c1C [MEFENAMIC ACID]

SMILES | microsomal CLint ([1]; liver microsomes) [µL/min/mg] | solubility thermodynamic [2] [µM] | microsomal CLint ([1]; microsomes) [µL/min/mg] | logD ([3]; pH 7.4, LogD7.4) | logD ([3]; pH 7.4)
CC1CN(S(=O)(=O)c2ccccc2)CCN1Cc1cc(Cl)ccc1OCC(=O)O (stereo unspecified) | – | – | < 3 | 0.69 | –
C[C@H]1CN(Cc2cc(Cl)ccc2OC(C)(C)C(=O)O)CCN1S(=O)(=O)c1ccccc1 | – | – | < 3 | 0.54 | –
c1ccc2c(c1)[nH]c1cnccc12 [NORHARMANE] | 89 | 339 (≈ 57 µg/mL) | – | – | –
